The NIST ThermoML archive (doi:10.1021/je200854k)
Numbers after ± are expanded uncertainties.

Settings: Liquid, Capillary tube (Ostwald / Ubbelohde) method

Structure (SMILES): FC(F)CC(F)(F)F [1,1,1,3,3-pentafluoropropane]
- viscosity (263.15 K, 1000 kPa): 0.679 ± 0.014 mPa·s
- viscosity (263.15 K, 5000 kPa): 0.7113 ± 0.015 mPa·s
- viscosity (263.15 K, 10000 kPa): 0.7526 ± 0.016 mPa·s
- viscosity (263.15 K, 15000 kPa): 0.7951 ± 0.017 mPa·s
- viscosity (263.15 K, 20000 kPa): 0.8369 ± 0.018 mPa·s
- viscosity (263.15 K, 25000 kPa): 0.8778 ± 0.018 mPa·s
- viscosity (263.15 K, 30000 kPa): 0.9236 ± 0.019 mPa·s
- viscosity (263.15 K, 35000 kPa): 0.9686 ± 0.02 mPa·s
- viscosity (263.15 K, 40000 kPa): 1.015 ± 0.021 mPa·s
- viscosity (273.14 K, 1000 kPa): 0.5811 ± 0.012 mPa·s
- viscosity (273.14 K, 5000 kPa): 0.6083 ± 0.013 mPa·s
- viscosity (273.14 K, 10000 kPa): 0.6456 ± 0.014 mPa·s
- viscosity (273.14 K, 15000 kPa): 0.6801 ± 0.014 mPa·s
- viscosity (273.14 K, 20000 kPa): 0.717 ± 0.015 mPa·s
- viscosity (273.14 K, 25000 kPa): 0.7534 ± 0.016 mPa·s
- viscosity (273.14 K, 30000 kPa): 0.7902 ± 0.017 mPa·s
- viscosity (273.14 K, 35000 kPa): 0.8293 ± 0.017 mPa·s
- viscosity (273.14 K, 40000 kPa): 0.8685 ± 0.018 mPa·s
- viscosity (283.14 K, 1000 kPa): 0.4999 ± 0.011 mPa·s
- viscosity (283.14 K, 5000 kPa): 0.5252 ± 0.011 mPa·s
- viscosity (283.14 K, 10000 kPa): 0.5564 ± 0.012 mPa·s
- viscosity (283.14 K, 15000 kPa): 0.5887 ± 0.012 mPa·s
- viscosity (283.14 K, 20000 kPa): 0.6204 ± 0.013 mPa·s
- viscosity (283.14 K, 25000 kPa): 0.6519 ± 0.014 mPa·s
- viscosity (283.14 K, 30000 kPa): 0.6847 ± 0.014 mPa·s
- viscosity (283.14 K, 35000 kPa): 0.7184 ± 0.015 mPa·s
- viscosity (283.14 K, 40000 kPa): 0.7497 ± 0.016 mPa·s
- viscosity (293.14 K, 1000 kPa): 0.4344 ± 0.0092 mPa·s
- viscosity (293.14 K, 5000 kPa): 0.4571 ± 0.0097 mPa·s
- viscosity (293.14 K, 10000 kPa): 0.4859 ± 0.01 mPa·s
- viscosity (293.14 K, 15000 kPa): 0.5143 ± 0.011 mPa·s
- viscosity (293.14 K, 20000 kPa): 0.5433 ± 0.011 mPa·s
- viscosity (293.14 K, 25000 kPa): 0.5704 ± 0.012 mPa·s
- viscosity (293.14 K, 30000 kPa): 0.5998 ± 0.013 mPa·s
- viscosity (293.14 K, 35000 kPa): 0.6291 ± 0.013 mPa·s
- viscosity (293.14 K, 40000 kPa): 0.6589 ± 0.014 mPa·s
- viscosity (303.14 K, 1000 kPa): 0.3799 ± 0.0081 mPa·s
- viscosity (303.14 K, 5000 kPa): 0.4011 ± 0.0086 mPa·s
- viscosity (303.14 K, 10000 kPa): 0.4282 ± 0.0091 mPa·s
- viscosity (303.14 K, 15000 kPa): 0.4534 ± 0.0096 mPa·s
- viscosity (303.14 K, 20000 kPa): 0.4796 ± 0.01 mPa·s
- viscosity (303.14 K, 25000 kPa): 0.5048 ± 0.011 mPa·s
- viscosity (303.14 K, 30000 kPa): 0.5306 ± 0.011 mPa·s
- viscosity (303.14 K, 35000 kPa): 0.5573 ± 0.012 mPa·s
- viscosity (303.14 K, 40000 kPa): 0.5829 ± 0.012 mPa·s
- viscosity (313.14 K, 1000 kPa): 0.3343 ± 0.0072 mPa·s
- viscosity (313.14 K, 5000 kPa): 0.3538 ± 0.0076 mPa·s
- viscosity (313.14 K, 10000 kPa): 0.379 ± 0.0081 mPa·s
- viscosity (313.14 K, 15000 kPa): 0.4035 ± 0.0086 mPa·s
- viscosity (313.14 K, 20000 kPa): 0.427 ± 0.0091 mPa·s
- viscosity (313.14 K, 25000 kPa): 0.4502 ± 0.0096 mPa·s
- viscosity (313.14 K, 30000 kPa): 0.4745 ± 0.01 mPa·s
- viscosity (313.14 K, 35000 kPa): 0.4975 ± 0.01 mPa·s
- viscosity (313.14 K, 40000 kPa): 0.5211 ± 0.011 mPa·s
- viscosity (323.13 K, 1000 kPa): 0.2952 ± 0.0064 mPa·s
- viscosity (323.13 K, 5000 kPa): 0.3139 ± 0.0068 mPa·s
- viscosity (323.13 K, 10000 kPa): 0.3372 ± 0.0072 mPa·s
- viscosity (323.13 K, 15000 kPa): 0.3595 ± 0.0077 mPa·s
- viscosity (323.13 K, 20000 kPa): 0.3816 ± 0.0081 mPa·s
- viscosity (323.13 K, 25000 kPa): 0.4029 ± 0.0086 mPa·s
- viscosity (323.13 K, 30000 kPa): 0.425 ± 0.009 mPa·s
- viscosity (323.13 K, 35000 kPa): 0.4464 ± 0.0095 mPa·s
- viscosity (323.13 K, 40000 kPa): 0.4694 ± 0.01 mPa·s
- viscosity (333.13 K, 1000 kPa): 0.2601 ± 0.0057 mPa·s
- viscosity (333.13 K, 5000 kPa): 0.2788 ± 0.0061 mPa·s
- viscosity (333.13 K, 10000 kPa): 0.3009 ± 0.0065 mPa·s
- viscosity (333.13 K, 15000 kPa): 0.3232 ± 0.007 mPa·s
- viscosity (333.13 K, 20000 kPa): 0.3433 ± 0.0074 mPa·s
- viscosity (333.13 K, 25000 kPa): 0.3637 ± 0.0078 mPa·s
- viscosity (333.13 K, 30000 kPa): 0.3837 ± 0.0082 mPa·s
- viscosity (333.13 K, 35000 kPa): 0.4048 ± 0.0086 mPa·s
- viscosity (333.13 K, 40000 kPa): 0.4241 ± 0.009 mPa·s
- viscosity (343.13 K, 1000 kPa): 0.2301 ± 0.0051 mPa·s
- viscosity (343.13 K, 5000 kPa): 0.2484 ± 0.0055 mPa·s
- viscosity (343.13 K, 10000 kPa): 0.2698 ± 0.0059 mPa·s
- viscosity (343.13 K, 15000 kPa): 0.29 ± 0.0063 mPa·s
- viscosity (343.13 K, 20000 kPa): 0.31 ± 0.0067 mPa·s
- viscosity (343.13 K, 25000 kPa): 0.3304 ± 0.0071 mPa·s
- viscosity (343.13 K, 30000 kPa): 0.3488 ± 0.0075 mPa·s
- viscosity (343.13 K, 35000 kPa): 0.3686 ± 0.0079 mPa·s
- viscosity (343.13 K, 40000 kPa): 0.3872 ± 0.0082 mPa·s
- viscosity (353.13 K, 1000 kPa): 0.2053 ± 0.0046 mPa·s
- viscosity (353.13 K, 5000 kPa): 0.2226 ± 0.0049 mPa·s
- viscosity (353.13 K, 10000 kPa): 0.2428 ± 0.0053 mPa·s
- viscosity (353.13 K, 15000 kPa): 0.2627 ± 0.0057 mPa·s
- viscosity (353.13 K, 20000 kPa): 0.2819 ± 0.0061 mPa·s
- viscosity (353.13 K, 25000 kPa): 0.2999 ± 0.0065 mPa·s
- viscosity (353.13 K, 30000 kPa): 0.3186 ± 0.0068 mPa·s
- viscosity (353.13 K, 35000 kPa): 0.3361 ± 0.0072 mPa·s
- viscosity (353.13 K, 40000 kPa): 0.3537 ± 0.0076 mPa·s
- viscosity (363.14 K, 2000 kPa): 0.1838 ± 0.0042 mPa·s
- viscosity (363.14 K, 5000 kPa): 0.1972 ± 0.0044 mPa·s
- viscosity (363.14 K, 10000 kPa): 0.219 ± 0.0049 mPa·s
- viscosity (363.14 K, 15000 kPa): 0.2389 ± 0.0052 mPa·s
- viscosity (363.14 K, 20000 kPa): 0.2561 ± 0.0056 mPa·s
- viscosity (363.14 K, 25000 kPa): 0.2746 ± 0.0059 mPa·s
- viscosity (363.14 K, 30000 kPa): 0.2918 ± 0.0063 mPa·s
- viscosity (363.14 K, 35000 kPa): 0.3084 ± 0.0066 mPa·s
- viscosity (363.14 K, 40000 kPa): 0.325 ± 0.007 mPa·s
- viscosity (373.14 K, 2000 kPa): 0.1612 ± 0.0038 mPa·s
- viscosity (373.14 K, 5000 kPa): 0.1758 ± 0.004 mPa·s
- viscosity (373.14 K, 10000 kPa): 0.1977 ± 0.0044 mPa·s
- viscosity (373.14 K, 15000 kPa): 0.2165 ± 0.0048 mPa·s
- viscosity (373.14 K, 20000 kPa): 0.2346 ± 0.0051 mPa·s
- viscosity (373.14 K, 25000 kPa): 0.2518 ± 0.0055 mPa·s
- viscosity (373.14 K, 30000 kPa): 0.2679 ± 0.0058 mPa·s
- viscosity (373.14 K, 35000 kPa): 0.2839 ± 0.0061 mPa·s
